The values that follow come from patent US5302514A, “Maltooligoside derivative, reagent for determining α-amylase activity containing the same as effective ingredient and a process for determining the α-amylase activity using same” (Kikkoman Corporation, priority 1991, dated 1994).

By Km is commonly meant the concentration of substrate that gives half-maximal velocity.

Assay [1] deals with T1, amylase derived from human saliva (human S type α-amylase) (Homo sapiens, UniProt P0DUB6).
T1 sequence (P0DUB6 16-511): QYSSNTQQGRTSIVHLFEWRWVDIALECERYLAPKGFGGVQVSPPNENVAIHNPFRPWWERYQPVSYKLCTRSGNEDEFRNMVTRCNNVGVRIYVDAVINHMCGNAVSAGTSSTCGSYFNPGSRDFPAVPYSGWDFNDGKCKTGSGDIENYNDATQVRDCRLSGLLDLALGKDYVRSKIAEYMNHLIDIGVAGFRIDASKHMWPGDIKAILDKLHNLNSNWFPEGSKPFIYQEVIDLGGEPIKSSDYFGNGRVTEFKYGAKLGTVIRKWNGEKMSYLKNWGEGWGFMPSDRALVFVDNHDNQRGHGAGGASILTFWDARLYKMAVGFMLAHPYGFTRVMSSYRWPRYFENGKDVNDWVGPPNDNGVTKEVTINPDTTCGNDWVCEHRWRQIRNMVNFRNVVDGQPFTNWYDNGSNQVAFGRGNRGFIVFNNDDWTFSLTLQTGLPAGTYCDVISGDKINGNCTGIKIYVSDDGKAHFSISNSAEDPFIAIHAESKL
Nature of the assay: Km value, S type α-amylase. Type of assay: biochemical. Conditions: pH 7.0, 37° C., Lineweaver-Burk. The method, then:
Km values, hydrolysis rate, water solubility and the patterns of action in the hydrolysis of the present substrates 2-chloro-4-nitrophenyl 5^5 -eno-4^5 -O-mesyl-β-D-maltopentaoside (EMG5CNP) and 2-chloro-4-nitrophenyl 6^5 -azido-6^5 -deoxy- β-D-maltopentaoside (ADG5CNP) obtained in Example were examined in accordance with the following methods.
Substrate solutions were prepared by dissolving in a 50 mM phosphate buffer (pH=7.0) containing 40 mM NaCl and 2 mM MgCl2 a substrate to 0.16, 0.32, 0.48, 0.64, 0.80 and 0.96 mM, respectively.
The Km value of each substrate solution was obtained by measuring the hydrolysis rate of the substrate in accordance with the same procedure as in the measurement of hydrolysis rate described below and roughly calculating the Lineweaver-Burk's reciprocal plot (see "Tanpaku-Kohso no Jikken-hou", ed. Takeichi Horio & Jinpei Yamashita, Nanko-do, 1981).
Each substrate was dissolved in a 50 mM phosphate buffer (pH=7.0) containing 40 mM NaCl and 2 mM MgCl2 to make three substrate solutions in a concentration of 0.8-1.6 times and three substrate solutions in a concentration of 1.6-3.2 times per the roughly calculated Km value in the aforementioned paragraph (ii).
The Km value was calculated in accordance with the same procedure as in the aforementioned paragraph (ii).
(§1) S: amylase derived from human saliva.

For assay [2], the target named is T1, amylase derived from human saliva (human S type α-amylase). Nature of the assay: Hydrolysis rate, S type α-amylase. To be noted: relative to hydrolysis rate of 3 mM G5CNP defined as 10, substrate 7-9 times the Km. It counts as biochemical. The method, then:
The coupled enzyme solution was prepared in the same manner as in the step (2) of Example 5.
Commercially available human P type and S type α-amylase solutions having a concentration of ca. 500 IU/l were prepared in the same manner as in the step (3) of Example 5.
With 250 μl of the α-amylase solution prepared in (iii) was mixed 1.0 ml of the coupled enzyme. The mixture was heated at 37° C. for 1 minute, and 2.0 ml of the substrate solution was added with stirring to the mixture. The variation of absorbance at 400 nm was measured for 2 minutes after heating the mixture at 37° C. for 2 minutes. The hydrolysis rate of each substrate, namely the variable absorbance per unit time was expressed with the relative values to the hydrolysis rate of 3 mM G5CNP (the reference substrate) which is defined as 10.
as §1

As to `[N-]=[N+]=NC[C@H]1O[C@H](O[C@H]2[C@H](O)[C@@H](O)[C@@H](O[C@H]3[C@H](O)[C@@H](O)[C@@H](O[C@H]4[C@H](O)[C@@H](O)[C@@H](O[C@H]5[C@H](O)[C@@H](O)[C@H](Oc6ccc([N+](=O)[O-])cc6Cl)O[C@@H]5CO)O[C@@H]4CO)O[C@@H]3CO)O[C@@H]2CO)[C@H](O)[C@@H](O)[C@@H]1O` [ADG5CNP, 2-chloro-4-nitrophenyl 6^5-azido-6^5-deoxy-β-D-maltopentaoside], the Km in assay [1] stood at 260 µM. The compound further returned a Hydrolysis rate in assay [2] of 10.

As for `C=C1O[C@H](O[C@H]2[C@H](O)[C@@H](O)[C@@H](O[C@H]3[C@H](O)[C@@H](O)[C@@H](O[C@H]4[C@H](O)[C@@H](O)[C@@H](O[C@H]5[C@H](O)[C@@H](O)[C@H](Oc6ccc([N+](=O)[O-])cc6Cl)O[C@@H]5CO)O[C@@H]4CO)O[C@@H]3CO)O[C@@H]2CO)[C@H](O)[C@@H](O)[C@@H]1OS(C)(=O)=O` [EMG5CNP, 2-chloro-4-nitrophenyl 5^5-eno-4^5 -O-mesyl-β-D-maltopentaoside], the Km in assay [1] came out at 140 µM. For the same compound, the Hydrolysis rate in assay [2] is given as 10.
